The values below come from patent US20090111825A1, “THIOPHENE 1,2,4-TRIAZOLE DERIVATIVES AS MODULATORS OF MGLUR5” (priority 2007, published 2009).

For one data set, the target named is T1, human mGluR5d (Homo sapiens, UniProt P41594).
T1 construct: expressed in transfected cells
Briefly: FLIPR assay, mobilization of intracellular calcium in cells expressing human mGluR5d. The class given is cell-based. The settings on record: antagonism of agonist response, read-out: FLIPR hmGluR5d. An excerpt:
The properties of the compounds of the invention can be analyzed using standard assays for pharmacological activity. Examples of glutamate receptor assays are well known in the art as described in for example Aramori et al., Neuron 8:757 (1992), Tanabe et al., Neuron 8:169 (1992), Miller et al., J. Neuroscience 15: 6103 (1995), Balazs, et al., J. Neurochemistry 69:151 (1997). The methodology described in these publications is incorporated herein by reference. Conveniently, the compounds of the invention can be studied by means of an assay (FLIPR) that measures the mobilization of intracellular calcium, [Ca^2+]i in cells expressing mGluR5 or another assay (IP3) that measures inositol phosphate turnover.
Cells expressing human mGluR5d as described in WO97/05252 cultured in a mixture of high glucose DMEM with Glutamax (31966-021)(500 mL), 10% dialyzed fetal bovine serum (Hyclone #SH30079.03)(56 mL), 200 μg/mL Hygromycin B (Invitrogen 45-0430, 50 mg/mL)(2.2 mL), 200 μg/mL Zeocin (Invitrogen #R250-01; 100 mg/mL)(1.1 mL) are seeded at a density of 100,000 cells per well on collagen coated clear bottom 96-well plates with black sides and cells were allowed to adhere over night before experiments. All assays are done in a buffer containing 146 mM NaCl, 5 mM KCl, 1 mM MgCl2, 1 mM CaCl2, 20 mM HEPES, 1 mg/mL glucose and 1 mg/mL BSA Fraction IV (pH 7.4). Cell cultures in the 96-well plates are loaded for 60 minutes in the above mentioned buffer containing 6 μM of the acetoxymethyl ester form of the fluorescent calcium indicator fluo-3 (Molecular Probes, Eugene, Oreg.) in 0.025% pluronic acid (a proprietary, non-ionic surfactant polyol—CAS Number 9003-11-6). Following the loading period the fluo-3 buffer is removed and replaced with fresh assay buffer. FLIPR experiments are done using a laser setting of 0.700 W and a 0.4 second CCD camera shutter speed with excitation and emission wavelengths of 488 nm and 562 nm, respectively. Each experiment is initiated with 160 μl of buffer present in each well of the cell plate. A 40 μl addition from the antagonist plate was followed by a 50 μL addition from the agonist plate. A 30 minutes, in dark at 25° C., interval separates the antagonist and agonist additions. The fluorescence signal is sampled 50 times at 1-second intervals followed by 3 samples at 5-second intervals immediately after each of the two additions. Responses are measured as the difference between the peak heights of the response to agonist) less the background fluorescence within the sample period. IC50 determinations are made using a linear least squares fitting program.
For orientation: Calcium flux is commonly read through the fluorescence of an indicator in the cells.

Data set [1] in a line: Determination of brain to plasma ratio in rat. The class given is in vivo. As to conditions: brain and plasma, female Sprague Dawley rats, drug in brain over drug in plasma, read-out: Brain/Plasma Ratio of compound in Rat. On the procedure:
Brain to plasma ratios are estimated in female Sprague Dawley rats. The compound is dissolved in water or another appropriate vehicle. For determination of brain to plasma ratio the compound is administrated as a subcutaneous, or an intravenous bolus injection, or an intravenous infusion, or an oral administration. At a predetermined time point after the administration a blood sample is taken with cardiac puncture. The rat is terminated by cutting the heart open, and the brain is immediately retained. The blood samples are collected in heparinized tubes and centrifuged within 30 minutes, in order to separate the plasma from the blood cells. The plasma is transferred to 96-well plates and stored at −20° C. until analysis. The brains are divided in half, and each half is placed in a pre-tarred tube and stored at −20° C. until analysis. Prior to the analysis, the brain samples are thawed and 3 mL/g brain tissue of distilled water is added to the tubes. The brain samples are sonicated in an ice bath until the samples are homogenized. Both brain and plasma samples are precipitated with acetonitrile. After centrifugation, the supernatant is diluted with 0.2% formic acid. Analysis is performed on a short reversed-phase HPLC column with rapid gradient elution and MSMS detection using a triple quadrupole instrument with electrospray ionization and Selected Reaction Monitoring (SRM) acquisition. Liquid-liquid extraction may be used as an alternative sample clean-up. The samples are extracted, by shaking, to an organic solvent after addition of a suitable buffer. An aliquot of the organic layer is transferred to a new vial and evaporated to dryness under a stream of nitrogen. After reconstitution of the residuals the samples are ready for injection onto the HPLC column.

Each structure is given as a SMILES string. Bounds are passed on as bounds.

T1 sequence (P41594 21-942 isoform P41594-3 limits assumed): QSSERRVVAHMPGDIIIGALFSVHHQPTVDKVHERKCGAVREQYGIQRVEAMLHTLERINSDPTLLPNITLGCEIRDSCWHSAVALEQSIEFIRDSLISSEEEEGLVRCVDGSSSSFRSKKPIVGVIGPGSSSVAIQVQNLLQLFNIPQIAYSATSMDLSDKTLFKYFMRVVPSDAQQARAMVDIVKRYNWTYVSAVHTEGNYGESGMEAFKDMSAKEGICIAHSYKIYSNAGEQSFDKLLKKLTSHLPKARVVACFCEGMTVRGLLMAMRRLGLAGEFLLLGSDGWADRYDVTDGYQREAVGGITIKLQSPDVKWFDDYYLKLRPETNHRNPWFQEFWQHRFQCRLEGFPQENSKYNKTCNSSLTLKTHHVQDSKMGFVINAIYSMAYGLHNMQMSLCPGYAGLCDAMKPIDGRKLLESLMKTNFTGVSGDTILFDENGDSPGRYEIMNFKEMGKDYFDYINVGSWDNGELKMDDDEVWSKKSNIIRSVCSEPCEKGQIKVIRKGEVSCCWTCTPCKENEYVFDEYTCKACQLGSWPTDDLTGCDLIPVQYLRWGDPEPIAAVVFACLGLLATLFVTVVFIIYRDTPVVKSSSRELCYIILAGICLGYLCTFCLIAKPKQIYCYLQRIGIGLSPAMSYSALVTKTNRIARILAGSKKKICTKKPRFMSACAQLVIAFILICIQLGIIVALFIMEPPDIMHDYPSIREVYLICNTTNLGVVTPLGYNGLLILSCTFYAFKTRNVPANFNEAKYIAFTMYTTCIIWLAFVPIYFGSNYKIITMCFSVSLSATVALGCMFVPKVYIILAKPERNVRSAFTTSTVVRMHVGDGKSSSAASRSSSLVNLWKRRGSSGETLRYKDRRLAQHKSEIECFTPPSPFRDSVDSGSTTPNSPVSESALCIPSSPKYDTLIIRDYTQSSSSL

On to `Cn1c(-c2cn[nH]c(=O)c2)nnc1N1[C@@H](c2cc(-c3csc(Cl)c3)on2)C[C@H]2C[C@H]21` [Example 10.1, 5-(5-{(1R,3R,5R)-3-[5-(5-Chloro-3-thienyl)isoxazol-3-yl]-2-azabicyclo[3.1.0]hex-2-yl}-4-methyl-4H-1,2,4-triazol-3-yl)pyridazin-3(2H)-one], for which, on human mGluR5d, the IC50 was found to be 34 nM. In addition, the Kp in data set [1] was 0.06.

As for `Cn1c(-c2cc[nH]c(=O)c2)nnc1N1[C@@H](c2cc(-c3csc(Cl)c3)on2)C[C@H]2C[C@H]21` [Example 10.2, 4-(5-{(1R,3R,5R)-3-[5-(5-Chloro-3-thienyl)isoxazol-3-yl]-2-azabicyclo[3.1.0]hex-2-yl}-4-methyl-4H-1,2,4-triazol-3-yl)pyridin-2(1H)-one], on human mGluR5d, the IC50 stood at 35 nM. The Kp in data set [1] was < 0.01.

As for `Cn1c(-c2cnn(C)c(=O)c2)nnc1N1CCC[C@@H]1c1cc(-c2csc(Cl)c2)on1` [Example 10.3, 5-(5-{(2R)-2-[5-(5-Chloro-3-thienyl)isoxazol-3-yl]pyrrolidin-1-yl}-4-methyl-4H-1,2,4-triazol-3-yl)-2-methylpyridazin-3(2H)-one], the IC50 on human mGluR5d came to 61 nM. In addition, the Kp in data set [1] worked out at 0.16.

As for `Cn1c(-c2cn[nH]c(=O)c2)nnc1N1CCC[C@@H]1c1cc(-c2csc(Cl)c2)on1` [Example 10.4, 5-(5-{(2R)-2-[5-(5-Chloro-3-thienyl)isoxazol-3-yl]pyrrolidin-1-yl}-4-methyl-4H-1,2,4-triazol-3-yl)pyridazin-3(2H)-one], the IC50 at human mGluR5d worked out at 39 nM. Also, in data set [1], the Kp was < 0.01.

Turning to `Cn1c(-c2ccn(C)c(=O)c2)nnc1N1CCC[C@@H]1c1cc(-c2csc(Cl)c2)on1` [Example 10.5, 4-(5-{(2R)-2-[5-(5-Chloro-3-thienyl)isoxazol-3-yl]pyrrolidin-1-yl}-4-methyl-4H-1,2,4-triazol-3-yl)-1-methylpyridin-2(1H)-one], the IC50 at human mGluR5d was 44 nM. Moreover, the Kp in data set [1] was determined as 0.03.

As for `Cn1c(-c2cc[nH]c(=O)c2)nnc1N1CCC[C@@H]1c1cc(-c2csc(Cl)c2)on1` [Example 10.6, 4-(5-{(2R)-2-[5-(5-Chloro-3-thienyl)isoxazol-3-yl]pyrrolidin-1-yl}-4-methyl-4H-1,2,4-triazol-3-yl)pyridin-2(1H)-one], the IC50 on human mGluR5d came to 35 nM. For the same compound, the Kp in data set [1] was < 0.01.
